Patent US20200085812A1, “HEAT SHOCK PROTEIN INDUCERS AND FRONTOTEMPORAL DISORDERS” (Orphazyme A/S, priority 2017, published 2020)

Columns and labels:
[1] = system: mutant VCP (mVCP) mice; experiment: In vivo physiology of EDL muscle: motor unit counts and maximal tetanic force; design: species or system mouse; conditions: 4 to 14 months, FIG. 1
Method: (§1) Arimoclomol treatment: Male mutant VCP (mVCP) mice were treated with Arimoclomol (120 mg/kg daily; orally in drinking water), from the start of symptom onset at 4 months, until close to end-stage at 14 months. Transgenic mice over-expressing wild-type human VCP (wt-VCP) were used as controls, and 10 male mice per group were studied; a sample size sufficient to test for statistical significance at P<0.05 in a single sex group.
In vivo physiology was carried out acutely at 14 months of age on terminally anaesthetized mice to quantify the number of motor units in the extensor digitorum longus (EDL) muscle in the hindlimb of mice in all experimental groups. Briefly, Isometric contractions were elicited by stimulating the Extensor Digitorum Longus (EDL) motor nerve using pulses of 0.02 ms duration and supramaximal intensity via electrodes. Contractions were elicited by stimulation of the sciatic nerve. The number of motor units in the EDL muscles was determined by stimulating the motor nerve with stimuli of increasing intensity, resulting in stepwise increments in twitch tension because of successive recruitment of motor axons.

[2] = system: mutant VCP (mVCP) mice; experiment: Motor neuron counts and area measurements, sciatic pool of spinal cord; assay type: in vivo, mouse; conditions: 120 mg/kg daily orally, 4 to 14 months, FIG. 2
Method: as §1
20 μm spinal cord sections from L3-L6 were stained with gallocyanin to visualise neurons for quantification (5 mice per group). […] 20 images of the sciatic pool regions of the spinal cord were taken per animal to measure the size distribution of motor neurons present in this area (at ×20 magnification). A minimum of 3 mice per experimental group were assessed. The soma area of motor neurons was determined by drawing around individual Nissl stained (gallocyanin) motor neuron cell bodies in cross-sectional images of L4-L5 region of the spinal cord. This was recorded using Leica Application Suite V3.8 analysis software and presented as a percentage of the total number of motor neurons per group.

[3] = system: mutant VCP (mVCP) mice; experiment: Immunohistochemistry of brain and spinal cord for pathology markers (TDP-43, ubiquitin, p-tau, p62, LC3, myelin, stress granule markers); assay type: in vivo, mouse; conditions: 120 mg/kg daily orally, 4 to 14 months
Method: as §1
(§2) Brain and spinal cords were harvested from mice in all experimental groups following transcardial perfusion with saline followed by 4% paraformaldehyde (PFA). Brain and spinal cords were then kept in 4% PFA for 12 hours before being transferred to a 30% sucrose solution. Cross-sections of brain and spinal cords were cut at 20 μm and blocked in 10% Normal Goat serum with 0.1% Triton X100 in PBS before primary antibodies were added for 1 hour at room temperature. Primary antibodies: Rabbit anti-TDP-43 [1:500], Rabbit anti-ubiquitin [1:500], mouse anti-phospho tau (AT8) [1:100], Rabbit/mouse anti-Beta-3 tubulin [1:100], mouse anti-HSP70 [1:100], Mouse anti-p62 [1:200], Rabbit anti-LC3 [1:500]Rabbit anti-Iba1 [1:100], anti neurofilament 2H3 [1:20], Synaptic vesicle protein [1:20], Fluoromyelin Red myelin stain [1:300]. Fluorescently labelled or biotinylated secondary antibodies were used 1:1000 for 2 hours at room temperature. 4′6-Diamidino-2-Phenylindole, Dihydrochloride (DAPI) was used to counterstain for nuclei in all fluorescent images. Imaging of tissue was using a standard Leica light/fluorescent microscope or a LSM 780 confocal microscope.
(§3) Fluorescent images were visualised under a Leica fluorescent microscope and analysed using Leica Application Suite software (Leica Microsystems, Germany).

[4] = system: HSP70; experiment: HSP70 immunostaining of brain and spinal cord of mVCP mice; assay type: in vivo, mouse
Method: as §1, §2, §3

[5] = system: mutant VCP (mVCP) mice; experiment: TUNEL assay for apoptotic cells in brain; assay type: in vivo, mouse; conditions: 120 mg/kg daily orally, 4 to 14 months, FIG. 9
Method: as §1
Apoptosis in the brain was assessed by Terminal deoxynucleotidyl transferase (TdT) dUTP Nick-End Labeling (TUNEL) assay for apoptotic cells, where nuclei containing double-stranded breaks in the DNA fluoresce green (Fluoroscein-tagged), indicating DNA degradation at the later stage of apoptosis (FIG. 9). In some mVCP mice, TUNEL-positive nuclei in small areas of layer I in the cortex were detected which were not seen in control animals, indicating brain cells undergoing apoptosis.

[6] = system: iPSC-derived motor neurons from mVCP patients; experiment: TDP-43 immunostaining of mVCP patient iPSC-derived motor neurons; assay type: cell-based, human; conditions: 10 μM for 24 hours, FIG. 12 A
Method: (§4) iPSCs were maintained on Geltrex (Life Technologies) with Essential 8 Medium media (Life Technologies), and passaged using EDTA (Life Technologies, 0.5 mM). All cell cultures were maintained at 37° C. and 5% carbon dioxide. Motor neuron (MN) differentiation was carried out using a previously published protocol (Hall et al., 2017). Briefly, iPSCs were first differentiated to neuroepithelium by plating to 100% confluency in chemically defined medium consisting of DMEM/F12 Glutamax, Neurobasal, LGlutamine, N2 supplement, non-essential amino acids, B27 supplement, […] (all from Life Technologies) and insulin (Sigma). Treatment with small molecules from day 0-7 was as follows: 1 μM Dorsomorphin (Sigma), 2 μM SB431542 (Sigma), and 3 μM CHIR99021 (Sigma). At day 8, the neuroepithelial layer was enzymatically dissociated using dispase (GIBCO, 1 mg/ml), plated onto Geltrex coated plates and next patterned for 7 days with 0.5 μM retinoic acid and 1 μM Purmorphamine. At day 14 spinal cord MN precursors were treated with 0.1 μM Purmorphamine for a further 4 days before being terminally differentiated in 0.1 μM Compound E (Sigma) to promote cell cycle exit. Cells were treated with 10 μM Arimoclomol for 24 hours following terminal differentiation and fixed in PFA for immuno-labelling.

[7] = system: HSP70; experiment: HSP70 immunostaining of mVCP patient iPSC-derived motor neurons; assay type: cell-based, human; conditions: 10 μM for 24 hours, FIG. 12 B
Method: as §4

[8] = system: mutant VCP (mVCP) mice; conditions: cited from earlier work
[9] = system: HSP70; conditions: treated versus untreated mVCP mice; cited from earlier work
[10] = mVCP mice treated with Arimoclomol, previously published study

For `[O-][n+]1cccc(/C(Cl)=N/OC[C@H](O)CN2CCCCC2)c1` [Arimoclomol, N-[2-hydroxy-3-(1-piperidinyl)-propoxy]-pyridine-1-oxide-3-carboximidoyl chloride], which “number of motor units in EDL muscle (motor unit survival)” value ([1]; 120 mg/kg daily orally in drinking water) is on record?
The value was “reduction in motor unit survival is prevented”.

What about the “muscle force generated by the EDL muscle” value ([1]; 120 mg/kg daily orally, versus untreated mice) of the same compound?
The value was “significantly greater than in untreated mice”.

And the “motor neuron survival in sciatic pool (L3-6) of spinal cord” value [2]?
The value was “reduction in motor neuron survival is prevented”.

What about the “shift towards smaller motor neuron soma size” value [2] of the same compound?
The value was “This shift is not seen”.

And the “accumulation of p62 in spinal cord” value ([3]; FIG. 5)?
Its value is “significantly ameliorated”.

And the “myelin abnormalities in spinal cord” value ([3]; FIG. 5)?
The value was “significantly ameliorated”.

What about the “increased LC3 expression in spinal cord” value ([3]; FIG. 5 D) of the same compound?
Its value is “significantly ameliorated”.

And the “phosphorylated tau-positive (p-tau) extracellular aggregates/lesions in brain” value ([3]; FIG. 6)?
Its value is “prevents the formation of these proteinaceous aggregates”.

And the “TDP-43 cytoplasmic mislocalisation in brain and spinal cord” value ([3]; FIGS. 3 and 4)?
The value was “TDP-43 mislocalisation was reduced”.

What about the “ubiquitin-positive intracellular aggregates in brain and spinal cord” value ([3]; FIGS. 5 and 6) of the same compound?
The value was “prevents the formation of these proteinaceous aggregates”.

And the “fluorescence intensity of HSP70 immunoreactivity in spinal cord (quantification)” value ([4]; mVCP mice treated versus untreated, FIG. 8 B)?
Its value is “enhanced”.

What about the “HSP70 expression in glial cells of spinal cord and brain” value ([4]; mVCP mice, 120 mg/kg daily orally, 4 to 14 months) of the same compound?
The value was “increased expression of HSP70”.

And the “HSP70 expression in brain and spinal cord” value ([4]; mVCP mice, 120 mg/kg daily orally, 4 to 14 months, versus untreated mVCP, FIGS. 7 and 8)?
Its value is “further augmented”.

What about the “TUNEL-positive apoptotic cells in brain cortex” value [5] of the same compound?
The value was “prevented the appearance of apoptotic cells”.

What about the “cytoplasmic mislocalisation of TDP-43” value [6] of the same compound?
Its value is “ameliorated”.

And the HSP70 expression [7]?
The HSP70 expression was “substantially increased”.

And the “maximal tetanic force of EDL muscle” value ([8]; 14 month old mVCP mice, versus wt-VCP controls, previously published study)?
The value was “prevented this reduction in muscle force”.

What about the “myofibre atrophy and degeneration” value [8, 10] of the same compound?
The value was “reduced myofibre atrophy and degeneration”.

What about the “protein aggregation and TDP-43 mislocalisation in skeletal muscle” value [8, 10] of the same compound?
The value was “decreased protein aggregation and TDP-43 mislocalisation”.

And the “decline in grip strength relative to body weight” value ([8]; mVCP mice, 4 to 14 months of age, untreated mVCP 44.1% reduction)?
The value was “no significant decline in grip strength”.

And the “expression of HSP70 in muscle (Western blot)” value [9]?
Its value is “two-fold”.
